{
  "source": "BindingDB's records for doi:10.1016/s0006-2952(96)00656-9",
  "about": "(Institute of Parasitology of Mcgill University, 1997)",
  "biological_target": "ATP-dependent translocase ABCB1 (Homo sapiens, UniProt P08183)",
  "sequence (P08183 whole entry)": "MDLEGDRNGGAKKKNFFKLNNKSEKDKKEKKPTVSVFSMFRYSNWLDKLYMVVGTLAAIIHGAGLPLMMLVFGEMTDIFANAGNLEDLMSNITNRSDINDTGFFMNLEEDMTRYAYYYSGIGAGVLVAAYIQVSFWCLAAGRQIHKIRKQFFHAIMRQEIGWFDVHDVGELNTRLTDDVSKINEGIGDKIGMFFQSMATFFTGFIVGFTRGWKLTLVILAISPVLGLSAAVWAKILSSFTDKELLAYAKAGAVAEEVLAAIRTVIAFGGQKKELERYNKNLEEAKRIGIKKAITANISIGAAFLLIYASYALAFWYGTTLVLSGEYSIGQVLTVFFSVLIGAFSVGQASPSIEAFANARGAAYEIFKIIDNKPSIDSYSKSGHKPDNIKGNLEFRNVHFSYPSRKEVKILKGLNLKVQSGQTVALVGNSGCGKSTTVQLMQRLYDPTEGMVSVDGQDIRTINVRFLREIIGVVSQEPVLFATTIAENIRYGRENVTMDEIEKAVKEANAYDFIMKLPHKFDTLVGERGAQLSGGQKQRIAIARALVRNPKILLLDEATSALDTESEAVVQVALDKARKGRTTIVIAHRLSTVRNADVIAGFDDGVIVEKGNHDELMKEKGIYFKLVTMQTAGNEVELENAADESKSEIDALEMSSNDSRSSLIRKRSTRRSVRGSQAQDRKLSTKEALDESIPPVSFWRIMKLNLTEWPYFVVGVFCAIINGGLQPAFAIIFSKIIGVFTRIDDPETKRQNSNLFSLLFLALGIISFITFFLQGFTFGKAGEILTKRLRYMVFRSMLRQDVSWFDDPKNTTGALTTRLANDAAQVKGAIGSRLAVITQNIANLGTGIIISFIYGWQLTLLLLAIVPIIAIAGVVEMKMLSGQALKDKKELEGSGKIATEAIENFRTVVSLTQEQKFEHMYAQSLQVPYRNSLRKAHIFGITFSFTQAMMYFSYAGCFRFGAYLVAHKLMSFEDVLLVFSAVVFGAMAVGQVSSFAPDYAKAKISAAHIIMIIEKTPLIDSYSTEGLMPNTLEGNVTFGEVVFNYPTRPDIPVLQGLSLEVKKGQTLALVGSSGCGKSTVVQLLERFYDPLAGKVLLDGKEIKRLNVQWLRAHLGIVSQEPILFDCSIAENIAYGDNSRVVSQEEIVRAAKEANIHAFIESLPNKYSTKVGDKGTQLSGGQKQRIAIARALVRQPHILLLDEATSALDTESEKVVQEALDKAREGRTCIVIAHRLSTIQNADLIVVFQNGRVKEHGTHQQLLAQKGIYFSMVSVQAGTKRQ",
  "test": "TP_TRANSPORTER: binding in plasma membranes from CEM/VLB1.0 cells",
  "data": [
    {"compound": "CC[C@H](C)[C@H]1O[C@]2(CC[C@@H]1C)C[C@@H]1C[C@@H](C/C=C(\\C)[C@@H](O[C@H]3C[C@H](OC)[C@@H](O[C@H]4C[C@H](OC)[C@@H](O)[C@H](C)O4)[C@H](C)O3)[C@@H](C)/C=C/C=C3\\CO[C@@H]4[C@H](O)C(C)=C[C@@H](C(=O)O1)[C@]34O)O2", "note": "[ABAMECTIN]", "values": [
      {"measurement": "Kd", "result": 11, "unit": "nM"}
    ]}
  ]
}
